Counter-ions that a name gives are not always drawn. One block for each molecule: values may come before it.
Columns and labels:
[1] = AFM dimensions (height, length) of peptoid nanotubes; format: physicochemical; details: nanotubes assembled from the named peptoid; ex-situ AFM on mica
Protocol: The lengths of PNTs can be adjusted through sonication.
PNTs were prepared using the slow evaporation method to self-assemble the peptoids. Typically, 1 μmol of peptoid was treated with 2 μL of trifluoroacetic acid (TFA) and dried under a flow of N2. Subsequently, 100 μL of acetonitrile was added, followed by the addition of 0.5 M NaOH. Deionized water was then added to bring the total volume to 200 μL. The samples were left at 4 °C for slow evaporation until a gel-like solution was obtained. Ex situ Atomic Force Microscopy (AFM) analysis was conducted using a Bruker MultiMode 8 in ScanAsyst mode at room temperature. For sample preparation, 1.5 μL of the self-assembled peptoid was diluted 40 times with deionized water and deposited on a mica substrate. After 5 min, Whatman filter paper was used to remove the solution, and then the dried mica substrate was further dried under N2 flow. The AFM probe consisted of silicon tips on silicon cantilevers (NCHV probes, k = 42 N/m, tip radius). Scanning electron microscopy (SEM) images were captured from the samples deposited on a silicon wafer using the Apreo2S scanning electron microscope by Thermo Fisher. The imaging process employed an ETD detector, an excitation voltage of 2 kV, a current of 0.2 nA, and a working distance of around 8 mm. […] XRD data were analyzed using custom Python scripts.

BV-2 cells [2] = experiment: Inhibition of DNS-PNT uptake by endocytic pathway inhibitors in BV-2 cells; format: cell-based, murine; details: inhibitor 10 μM, 1 h pre-incubation, DNS-PNT 20 μg/mL 24 h with or without inhibitor; confocal imaging
Protocol: BV-2 cells were seeded at a density of 10,000 cells per well in a 96-well plate and cultured for 2 days. […] Following uptake, the medium containing PNTs was collected, and the cells were further incubated in fresh CCM for 1 or 24 h to allow exocytosis. The supernatant was subsequently collected, and the cells were washed three times with PBS. […] Fluorescence intensity was measured directly at 335/518 nm excitation and emission using a Synergy H1 multimodal microplate reader. For inhibition studies, BV-2 cells were seeded in 35 mm culture dishes (VWR) at a density of 300,000 cells and cultured for 2 days. […] The inhibitors used were chlorpromazine hydrochloride (Sigma), cytochalasin D (Sigma), amiloride hydrochloride hydrate (Sigma), sucrose (Thermo Fisher Scientific), and genistein (Sigma). − After treatment, cells were incubated with LysoTracker (75 nM, Invitrogen) for 1 h and fixed with 10% formalin phosphate buffer (Thermo Fisher Scientific) for 10 min. Subsequently, cells were stained with Tomato Lectin (1 μg/mL, 1 h) and ToPro-3 (0.1 μg/mL, 15 min; Thermo Fisher Scientific) in PBS at room temperature. Confocal images were acquired using a Nikon microscope (40× and […] oil immersion objectives, 1.30 numerical aperture; Nikon Corporation, Minato City, Tokyo, Japan).

[3] = test system: OGD-exposed OWH brain slices; experiment: Propidium iodide cell death in OGD-exposed OWH brain slices; format: cell-based, rat; details: OGD-exposed P10 OWH slices, cortex and striatum, 24 h treatment, n = 7
BV-2 cells [4] = experiment: MTT cell viability / cytotoxicity in healthy BV-2 cells; format: cell-based, murine; details: 3 doses equivalent to NAM-PNT, 24 h (Figure S11)
Protocol: Murine microglia BV-2 cells were purchased from ATCC (CRL-2469) and cultured based on previous literature. Briefly, BV-2 cells were cultured in cell culture media (CCM, high-glucose, phenol red-free DMEM supplemented with 10% FBS, 1% glutamine, and 1% 100 U/mL penicillin–streptomycin) at 37 °C under a 5% CO2 atmosphere. The passage number of BV-2 cells used in this study was between 7 and 15. At 70–80% confluency, BV-2 cells were passaged and seeded in a 96-well plate for further experiments. […] Cell cytotoxicity was identified by the standard 3-(4,5-dimethylthiazol-2-yl)-2,5-diphenyltetrazolium bromide (MTT) assay (Thermo Fisher Scientific) on healthy cells. After 24 h, cells were incubated with fresh media containing 10 μL of 12 mM MTT solution in PBS for 4 h. Following the addition of 50 μL of […] (DMSO), the absorbance was recorded by a Synergy H1 multimodal microplate reader at a wavelength of 540 nm. Cell viability was measured using the alamarBlue (aBlue) Cell Viability Reagent (Thermo Fisher Scientific). […] The plate was measured directly at 560/590 nm excitation/emission fluorescence on a Synergy H1 multimodal microplate reader. Readings were normalized to those of healthy controls. […] Data were collected using a Synergy H1 multimodal microplate reader. For the OGD studies, readings were normalized to the average value of the OGD controls.

OGD-exposed BV-2 cells = experiment: AlamarBlue cell viability / metabolic activity in OGD-exposed BV-2 cells; format: cell-based, murine; details: 10 min OGD, then treatment, normalized to OGD controls
Protocol: Murine microglia BV-2 cells were purchased from ATCC (CRL-2469) and cultured based on previous literature. Briefly, BV-2 cells were cultured in cell culture media (CCM, high-glucose, phenol red-free DMEM supplemented with 10% FBS, 1% glutamine, and 1% 100 U/mL penicillin–streptomycin) at 37 °C under a 5% CO2 atmosphere. The passage number of BV-2 cells used in this study was between 7 and 15. At 70–80% confluency, BV-2 cells were passaged and seeded in a 96-well plate for further experiments. […] Following the addition of 50 μL of […] (DMSO), the absorbance was recorded by a Synergy H1 multimodal microplate reader at a wavelength of 540 nm. Cell viability was measured using the alamarBlue (aBlue) Cell Viability Reagent (Thermo Fisher Scientific). […] The plate was measured directly at 560/590 nm excitation/emission fluorescence on a Synergy H1 multimodal microplate reader. Readings were normalized to those of healthy controls. […] Data were collected using a Synergy H1 multimodal microplate reader. For the OGD studies, readings were normalized to the average value of the OGD controls.

BV-2 cells [5] = experiment: Intracellular ATP level (luminescent ATP detection kit) in BV-2 cells; format: cell-based, murine
Protocol: We prepared OGD media as previously described. , OGD media consisted of 120 mM sodium chloride (NaCl, MilliporeSigma), 5 mM potassium chloride (KCl, MilliporeSigma), 2 mM calcium chloride (CaCl2, MilliporeSigma), 1.25 mM monosodium phosphate anhydrous (NaH2PO4, MilliporeSigma), 2 mM magnesium sulfate (MgSO4, MilliporeSigma), 25 mM sodium bicarbonate (NaHCO3, MilliporeSigma), and 20 mM HEPES in DI water. The OGD medium was sterile-filtered (0.2 μm), titrated to pH 7.4 with 1 M hydrochloric acid (Thermo Fisher Scientific) or 1 M sodium hydroxide (Thermo Fisher Scientific), bubbled with nitrogen gas (Praxair, Danbury, CT, USA) for at least 10 min, and prewarmed to 37 °C prior to use. […] Following the addition of 50 μL of […] (DMSO), the absorbance was recorded by a Synergy H1 multimodal microplate reader at a wavelength of 540 nm. Cell viability was measured using the alamarBlue (aBlue) Cell Viability Reagent (Thermo Fisher Scientific). […] The plate was measured directly at 560/590 nm excitation/emission fluorescence on a Synergy H1 multimodal microplate reader. Readings were normalized to those of healthy controls. […] Data were collected using a Synergy H1 multimodal microplate reader. For the OGD studies, readings were normalized to the average value of the OGD controls.

Height of nanotubes (ex-situ AFM) [1]: 7.78 ± 0.07 nm
Molecule: Nbrpm6Nce3Nae3Nc2DNS [Pep-DNS]

Molecule: N=C(N)NC(=O)c1nc(Cl)c(N)nc1N [amiloride, amiloride hydrochloride hydrate]
Effect of inhibitor on DNS-PNT internalization into BV-2 cells (BV-2 cells [2]): minimal impact

Molecule: O=c1c(-c2ccc(O)cc2)coc2cc(O)cc(O)c12 [genistein]
Effect of inhibitor on DNS-PNT internalization into BV-2 cells (BV-2 cells [2]): significantly suppressed PNT signals

Molecule: NC(=O)C1=CN([C@@H]2O[C@H](COP(=O)(O)OP(=O)(O)OC[C@H]3O[C@@H](n4cnc5c(N)ncnc54)[C@H](O)[C@@H]3O)[C@@H](O)[C@H]2O)C=CC1 [free NAD+, β-nicotinamide adenine dinucleotide]
Cell death (percentage of PI+ cells) [3]: did not improve cell viability
Increase in cell viability with free drug (MTT) (BV-2 cells [4]): increase was not seen
Metabolic activity / cell viability (AlamarBlue) versus OGD control (OGD-exposed BV-2 cells): no effect

Molecule: NC(=O)c1cccnc1 [free NAM, nicotinamide]
Increase in cell viability with free drug (MTT) (BV-2 cells [4]): increase was not seen
Improvement of intracellular ATP level after OGD energy depletion (BV-2 cells [5]; OGD-exposed BV-2 cells, free drug): did not
Cellular ATP level in healthy cells (BV-2 cells [5]; healthy BV-2 cells, 24 h (Figure S16a)): limited increase compared to NAM-PNTs

Molecule: OC[C@H]1O[C@@](CO)(O[C@H]2O[C@H](CO)[C@@H](O)[C@H](O)[C@H]2O)[C@@H](O)[C@@H]1O [sucrose]
Effect of inhibitor on DNS-PNT internalization into BV-2 cells (BV-2 cells [2]): reduced PNT uptake

Molecule: C=C1[C@@H](C)[C@H]2[C@H](Cc3ccccc3)NC(=O)[C@]23[C@H](OC(C)=O)/C=C/[C@@](C)(O)C(=O)[C@@H](C)C/C=C/[C@H]3[C@@H]1O [Cytochalasin D, cytochalasin D]
Effect of inhibitor on DNS-PNT internalization into BV-2 cells (BV-2 cells [2]): significantly suppressed PNT signals

Molecule: CN(C)CCCN1c2ccccc2Sc2ccc(Cl)cc21 [chlorpromazine, chlorpromazine hydrochloride]
Effect of inhibitor on DNS-PNT internalization into BV-2 cells (BV-2 cells [2]): minimal impact

Reference: paper PMC13131050, “Nicotinamide-Loaded Peptoid Nanotubes for Energy Regeneration in Acute Brain Injury” (ACS Nano, 2026)
